Data published in ChEMBL document CHEMBL5576038, “Design of a novel long-acting dual GLP-1/GIP receptor agonist” (Bioorg Med Chem, 2024).
Where a SMILES comes first, the peptide text is derived from it. [ ]: non-standard residue; d: D form. The star is where a group is joined. X6 = N[C@@H](CCCCNC(=O)CC[C@H](NC(=O)CCCCCCCCCCCCCCCCC(=O)O)C(=O)O)C(=O)NCCCC[C@H](N)C(=O)N[C@@H](CCCCNC(=O)C*)C(=O)O; X3 = O=C(O)CCCCCCCCCCCCCCCCC(=O)NCCOCCOCC(=O)N[C@@H](CCC(=O)N[C@@H](CCC(=O)N[C@@H](CCCCNC(=O)C*)C(=O)O)C(=O)O)C(=O)O; X5 = O=C(O)CCCCCCCCCCCCCCCCCCC(=O)N[C@@H](CCC(=O)NCCOCCOCC(=O)NCCOCCOCC(=O)N[C@@H](CCCCNC(=O)C*)C(=O)O)C(=O)O; Aib = CC(C)(N)C(=O)O

Legend:
[1] = biological target: Glucagon-like peptide 1 receptor (Homo sapiens, UniProt P43220); test: Agonist activity at human GLP-1R expressed in CHO cells assessed as increase in cAMP production incubated for 30 mins by Eu-cAMP tracer based microplate reader analysis; type: functional, cell-based
[2] = biological target: T1, Gastric inhibitory polypeptide receptor (Homo sapiens, UniProt P48546); test: Agonist activity at human GIPR expressed in CHO cells assessed as increase in cAMP production incubated for 30 mins by Eu-cAMP tracer based microplate reader analysis; type: functional, cell-based
T1 sequence (P48546 whole entry): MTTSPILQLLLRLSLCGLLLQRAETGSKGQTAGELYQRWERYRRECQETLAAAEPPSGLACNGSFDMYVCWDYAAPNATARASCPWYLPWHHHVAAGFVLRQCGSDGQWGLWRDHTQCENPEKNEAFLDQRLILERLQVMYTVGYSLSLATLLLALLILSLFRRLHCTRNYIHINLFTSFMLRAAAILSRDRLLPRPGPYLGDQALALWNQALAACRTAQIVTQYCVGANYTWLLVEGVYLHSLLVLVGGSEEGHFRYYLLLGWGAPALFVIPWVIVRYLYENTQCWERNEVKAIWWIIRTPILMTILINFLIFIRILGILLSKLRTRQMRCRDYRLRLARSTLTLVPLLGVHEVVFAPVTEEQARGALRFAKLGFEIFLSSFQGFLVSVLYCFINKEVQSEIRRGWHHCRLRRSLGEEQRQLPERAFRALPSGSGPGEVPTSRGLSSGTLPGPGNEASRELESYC

Glucagon-like peptide 1 receptor, sequence (P43220 whole entry): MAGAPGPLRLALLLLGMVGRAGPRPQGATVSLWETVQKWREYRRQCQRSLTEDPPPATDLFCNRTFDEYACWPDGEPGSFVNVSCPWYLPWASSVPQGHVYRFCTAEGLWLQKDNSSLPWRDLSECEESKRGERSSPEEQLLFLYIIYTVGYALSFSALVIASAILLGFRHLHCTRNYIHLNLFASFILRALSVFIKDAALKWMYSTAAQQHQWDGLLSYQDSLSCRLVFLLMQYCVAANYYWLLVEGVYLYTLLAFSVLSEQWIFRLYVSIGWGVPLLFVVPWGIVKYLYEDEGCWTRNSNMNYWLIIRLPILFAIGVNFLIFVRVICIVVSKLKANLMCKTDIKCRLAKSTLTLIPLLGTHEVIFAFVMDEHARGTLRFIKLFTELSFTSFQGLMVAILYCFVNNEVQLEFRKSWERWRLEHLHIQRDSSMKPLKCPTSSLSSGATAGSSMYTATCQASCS

Compound | EC50 [1] | EC50 [2] | EC50 ([1]; cho) | EC50 ([2]; cho)
CC(C)C[C@H](NC(=O)[C@H](CC(C)C)NC(=O)[C@H](Cc1c[nH]c2ccccc12)NC(=O)[C@H](CCC(N)=O)NC(=O)[C@@H](NC(=O)[C@H](Cc1ccccc1)NC(=O)[C@H](CC(C)C)NC(=O)[C@H](CSCC(=O)NCCCC[C@H](NC(=O)COCCOCCNC(=O)COCCOCCNC(=O)CC[C@H](NC(=O)CCCCCCCCCCCCCCCCCCC(=O)O)C(=O)O)C(=O)O)NC(=O)[C@H](C)NC(=O)[C@H](C)NC(=O)[C@H](CCC(N)=O)NC(=O)[C@H](CCCCN)NC(=O)[C@H](CCC(=O)O)NC(=O)[C@H](CC(C)C)NC(=O)[C@H](Cc1ccc(O)cc1)NC(=O)[C@H](Cc1ccc(O)cc1)NC(=O)[C@H](CO)NC(=O)[C@H](Cc1ccc(O)cc1)NC(=O)[C@H](CC(=O)O)NC(=O)[C@H](CO)NC(=O)[C@@H](NC(=O)[C@H](Cc1ccccc1)NC(=O)[C@@H](NC(=O)CNC(=O)[C@H](CCC(=O)O)NC(=O)C(C)(C)NC(=O)[C@@H](N)Cc1ccc(O)cc1)[C@@H](C)O)[C@@H](C)O)C(C)C)C(=O)N[C@@H](C)C(=O)NCC(=O)NCC(=O)N1CCC[C@H]1C(=O)N[C@@H](CO)C(=O)N[C@@H](CO)C(=O)NCC(=O)N[C@@H](C)C(=O)N1CCC[C@H]1C(=O)N1CCC[C@H]1C(=O)N1CCC[C@H]1C(=O)N[C@@H](CO)C(N)=O (H-Y[Aib]EGTFTSDYSYYLEKQAAC(X5)LFVQWLLAGGPSSGAPPPS-NH2) | 0.49 nM | 1.31 nM |  | 
CC(C)C[C@H](NC(=O)[C@H](CC(C)C)NC(=O)[C@H](Cc1c[nH]c2ccccc12)NC(=O)[C@H](CCC(N)=O)NC(=O)[C@@H](NC(=O)[C@H](Cc1ccccc1)NC(=O)[C@H](CC(C)C)NC(=O)[C@H](CCCCN)NC(=O)[C@H](C)NC(=O)[C@H](C)NC(=O)[C@H](CCC(N)=O)NC(=O)[C@H](CCCCN)NC(=O)[C@H](CCC(=O)O)NC(=O)[C@H](CC(C)C)NC(=O)[C@H](CS)NC(=O)[C@H](Cc1ccc(O)cc1)NC(=O)[C@H](CO)NC(=O)[C@H](Cc1ccc(O)cc1)NC(=O)[C@H](CC(=O)O)NC(=O)[C@H](CO)NC(=O)[C@@H](NC(=O)[C@H](Cc1ccccc1)NC(=O)[C@@H](NC(=O)CNC(=O)[C@H](CCC(=O)O)NC(=O)C(C)(C)NC(=O)[C@@H](N)Cc1ccc(O)cc1)[C@@H](C)O)[C@@H](C)O)C(C)C)C(=O)N[C@@H](C)C(=O)NCC(=O)NCC(=O)N1CCC[C@H]1C(=O)N[C@@H](CO)C(=O)N[C@@H](CO)C(=O)NCC(=O)N[C@@H](C)C(=O)N1CCC[C@H]1C(=O)N1CCC[C@H]1C(=O)N1CCC[C@H]1C(=O)N[C@@H](CO)C(N)=O (H-Y[Aib]EGTFTSDYSYCLEKQAAKLFVQWLLAGGPSSGAPPPS-NH2) | 0.42 nM | 0.39 nM |  | 
CC(C)C[C@H](NC(=O)[C@H](CC(C)C)NC(=O)[C@H](Cc1c[nH]c2ccccc12)NC(=O)[C@H](CSCC(=O)NCCCC[C@H](NC(=O)CC[C@H](NC(=O)CC[C@H](NC(=O)COCCOCCNC(=O)CCCCCCCCCCCCCCCCC(=O)O)C(=O)O)C(=O)O)C(=O)O)NC(=O)[C@@H](NC(=O)[C@H](Cc1ccccc1)NC(=O)[C@H](CC(C)C)NC(=O)[C@H](CCCCN)NC(=O)[C@H](C)NC(=O)[C@H](C)NC(=O)[C@H](CCC(N)=O)NC(=O)[C@H](CCCCN)NC(=O)[C@H](CCC(=O)O)NC(=O)[C@H](CC(C)C)NC(=O)[C@H](Cc1ccc(O)cc1)NC(=O)[C@H](Cc1ccc(O)cc1)NC(=O)[C@H](CO)NC(=O)[C@H](Cc1ccc(O)cc1)NC(=O)[C@H](CC(=O)O)NC(=O)[C@H](CO)NC(=O)[C@@H](NC(=O)[C@H](Cc1ccccc1)NC(=O)[C@@H](NC(=O)CNC(=O)[C@H](CCC(=O)O)NC(=O)C(C)(C)NC(=O)[C@@H](N)Cc1ccc(O)cc1)[C@@H](C)O)[C@@H](C)O)C(C)C)C(=O)N[C@@H](C)C(=O)NCC(=O)NCC(=O)N1CCC[C@H]1C(=O)N[C@@H](CO)C(=O)N[C@@H](CO)C(=O)NCC(=O)N[C@@H](C)C(=O)N1CCC[C@H]1C(=O)N1CCC[C@H]1C(=O)N1CCC[C@H]1C(=O)N[C@@H](CO)C(N)=O (H-Y[Aib]EGTFTSDYSYYLEKQAAKLFVC(X3)WLLAGGPSSGAPPPS-NH2) | 0.29 nM | 0.46 nM |  | 
CC(C)C[C@H](NC(=O)[C@H](CC(C)C)NC(=O)[C@H](Cc1c[nH]c2ccccc12)NC(=O)[C@H](CS)NC(=O)[C@@H](NC(=O)[C@H](Cc1ccccc1)NC(=O)[C@H](CC(C)C)NC(=O)[C@H](CCCCN)NC(=O)[C@H](C)NC(=O)[C@H](C)NC(=O)[C@H](CCC(N)=O)NC(=O)[C@H](CCCCN)NC(=O)[C@H](CCC(=O)O)NC(=O)[C@H](CC(C)C)NC(=O)[C@H](Cc1ccc(O)cc1)NC(=O)[C@H](Cc1ccc(O)cc1)NC(=O)[C@H](CO)NC(=O)[C@H](Cc1ccc(O)cc1)NC(=O)[C@H](CC(=O)O)NC(=O)[C@H](CO)NC(=O)[C@@H](NC(=O)[C@H](Cc1ccccc1)NC(=O)[C@@H](NC(=O)CNC(=O)[C@H](CCC(=O)O)NC(=O)C(C)(C)NC(=O)[C@@H](N)Cc1ccc(O)cc1)[C@@H](C)O)[C@@H](C)O)C(C)C)C(=O)N[C@@H](C)C(=O)NCC(=O)NCC(=O)N1CCC[C@H]1C(=O)N[C@@H](CO)C(=O)N[C@@H](CO)C(=O)NCC(=O)N[C@@H](C)C(=O)N1CCC[C@H]1C(=O)N1CCC[C@H]1C(=O)N1CCC[C@H]1C(=O)N[C@@H](CO)C(N)=O (H-Y[Aib]EGTFTSDYSYYLEKQAAKLFVCWLLAGGPSSGAPPPS-NH2) | 0.57 nM | 2.57 nM |  | 
CC(C)C[C@H](NC(=O)[C@H](CC(C)C)NC(=O)[C@H](Cc1c[nH]c2ccccc12)NC(=O)[C@H](CSCC(=O)NCCCC[C@H](NC(=O)[C@@H](N)CCCCNC(=O)[C@@H](N)CCCCNC(=O)CC[C@H](NC(=O)CCCCCCCCCCCCCCCCC(=O)O)C(=O)O)C(=O)O)NC(=O)[C@@H](NC(=O)[C@H](Cc1ccccc1)NC(=O)[C@H](CC(C)C)NC(=O)[C@H](CCCCN)NC(=O)[C@H](C)NC(=O)[C@H](C)NC(=O)[C@H](CCC(N)=O)NC(=O)[C@H](CCCCN)NC(=O)[C@H](CCC(=O)O)NC(=O)[C@H](CC(C)C)NC(=O)[C@H](Cc1ccc(O)cc1)NC(=O)[C@H](Cc1ccc(O)cc1)NC(=O)[C@H](CO)NC(=O)[C@H](Cc1ccc(O)cc1)NC(=O)[C@H](CC(=O)O)NC(=O)[C@H](CO)NC(=O)[C@@H](NC(=O)[C@H](Cc1ccccc1)NC(=O)[C@@H](NC(=O)CNC(=O)[C@H](CCC(=O)O)NC(=O)C(C)(C)NC(=O)[C@@H](N)Cc1ccc(O)cc1)[C@@H](C)O)[C@@H](C)O)C(C)C)C(=O)N[C@@H](C)C(=O)NCC(=O)NCC(=O)N1CCC[C@H]1C(=O)N[C@@H](CO)C(=O)N[C@@H](CO)C(=O)NCC(=O)N[C@@H](C)C(=O)N1CCC[C@H]1C(=O)N1CCC[C@H]1C(=O)N1CCC[C@H]1C(=O)N[C@@H](CO)C(N)=O (H-Y[Aib]EGTFTSDYSYYLEKQAAKLFVC(X6)WLLAGGPSSGAPPPS-NH2) | 0.4 nM | 2.76 nM |  | 
CC(C)C[C@H](NC(=O)[C@H](CC(C)C)NC(=O)[C@H](Cc1c[nH]c2ccccc12)NC(=O)[C@H](CCC(N)=O)NC(=O)[C@@H](NC(=O)[C@H](Cc1ccccc1)NC(=O)[C@H](CC(C)C)NC(=O)[C@H](CCCCN)NC(=O)[C@H](C)NC(=O)[C@H](C)NC(=O)[C@H](CCC(N)=O)NC(=O)[C@H](CCCCN)NC(=O)[C@H](CCC(=O)O)NC(=O)[C@H](CC(C)C)NC(=O)[C@H](CSCC(=O)NCCCC[C@H](NC(=O)COCCOCCNC(=O)COCCOCCNC(=O)CC[C@H](NC(=O)CCCCCCCCCCCCCCCCCCC(=O)O)C(=O)O)C(=O)O)NC(=O)[C@H](Cc1ccc(O)cc1)NC(=O)[C@H](CO)NC(=O)[C@H](Cc1ccc(O)cc1)NC(=O)[C@H](CC(=O)O)NC(=O)[C@H](CO)NC(=O)[C@@H](NC(=O)[C@H](Cc1ccccc1)NC(=O)[C@@H](NC(=O)CNC(=O)[C@H](CCC(=O)O)NC(=O)C(C)(C)NC(=O)[C@@H](N)Cc1ccc(O)cc1)[C@@H](C)O)[C@@H](C)O)C(C)C)C(=O)N[C@@H](C)C(=O)NCC(=O)NCC(=O)N1CCC[C@H]1C(=O)N[C@@H](CO)C(=O)N[C@@H](CO)C(=O)NCC(=O)N[C@@H](C)C(=O)N1CCC[C@H]1C(=O)N1CCC[C@H]1C(=O)N1CCC[C@H]1C(=O)N[C@@H](CO)C(N)=O (H-Y[Aib]EGTFTSDYSYC(X5)LEKQAAKLFVQWLLAGGPSSGAPPPS-NH2) | 1.34 nM | 0.42 nM |  | 
CC(C)C[C@H](NC(=O)[C@H](CC(C)C)NC(=O)[C@H](Cc1c[nH]c2ccccc12)NC(=O)[C@H](CCC(N)=O)NC(=O)[C@@H](NC(=O)[C@H](Cc1ccccc1)NC(=O)[C@H](CC(C)C)NC(=O)[C@H](CCCCN)NC(=O)[C@H](C)NC(=O)[C@H](C)NC(=O)[C@H](CCC(N)=O)NC(=O)[C@H](CS)NC(=O)[C@H](CCC(=O)O)NC(=O)[C@H](CC(C)C)NC(=O)[C@H](Cc1ccc(O)cc1)NC(=O)[C@H](Cc1ccc(O)cc1)NC(=O)[C@H](CO)NC(=O)[C@H](Cc1ccc(O)cc1)NC(=O)[C@H](CC(=O)O)NC(=O)[C@H](CO)NC(=O)[C@@H](NC(=O)[C@H](Cc1ccccc1)NC(=O)[C@@H](NC(=O)CNC(=O)[C@H](CCC(=O)O)NC(=O)C(C)(C)NC(=O)[C@@H](N)Cc1ccc(O)cc1)[C@@H](C)O)[C@@H](C)O)C(C)C)C(=O)N[C@@H](C)C(=O)NCC(=O)NCC(=O)N1CCC[C@H]1C(=O)N[C@@H](CO)C(=O)N[C@@H](CO)C(=O)NCC(=O)N[C@@H](C)C(=O)N1CCC[C@H]1C(=O)N1CCC[C@H]1C(=O)N1CCC[C@H]1C(=O)N[C@@H](CO)C(N)=O (H-Y[Aib]EGTFTSDYSYYLECQAAKLFVQWLLAGGPSSGAPPPS-NH2) |  |  | 0.6 nM | 1.87 nM
